System: Zika virus
Test: Zika virus replication in Aedes aegypti mosquitoes fed blood meal with harmane, plaque assay on VERO cells
Format: in vivo
Details: harmane in infectious blood meal, 7 days; for Zika virus PFU/mL in mosquito abdomens: vs control group
Experimental: 3-to-5-day-old Aedes aegypti strain SBE mosquitoes were fed via membrane feeders on a blood meal (rabbit blood) containing approximately 10^7 PFU/ml Zika virus and the indicated concentrations of harmane dissolved in dimethyl sulphoxide (DMSO). The bloodmeal fed to the control group contained no harmane. Fully engorged mosquitoes were selected and kept on a 10% sucrose diet. In total, 30 mosquitoes were analyzed per treatment.
After 7 days, the abdomens of mosquitoes were dissected and placed in 2 mL tubes containing glass beads and 300 μL of DMEM medium. Samples were homogenized. A 1:10 dilution series of this solution was dispersed onto 96-well plates containing VERO cells. 5-6 days later, the medium was discarded and viral plaques were fixed and developed with staining reagent (1% crystal violet in […] solution) at room temperature for 1 h. 5
Plates were rinsed with distilled water and air-dried. Plaques were counted and multiplied by the corresponding dilution factors to calculate the number of plaque-forming units (PFUs). Horizontal red lines are median values. […] Statistical differences were assessed using the nonparametric Mann-Whitney test.

Cc1nccc2c1[nH]c1ccccc12 [harmane, 1-Methyl-9H-pyrido[3,4-b]indole]
statistical difference of treated groups compared to the DMSO-control (Mann-Whitney): No significant differences | Zika virus PFU/mL in mosquito abdomens: reduced level | Zika virus PFU/mL in mosquito abdomens (listed as Harmane): dose dependent decrease

— patent publication US20260176594A1, “REDUCING DISEASE TRANSMISSION OF VECTOR BORNE DISEASES” (priority 2022, published 2026)
